A melting point compilation (Tetko et al.; mined from patent text by program, amines drawn as free bases though some values may be those of a salt)

melting point | Structure (SMILES)
125 to 126 °C | COc1ccc2c(=O)c(-c3ccc(OCC(O)CNC4CCCCC4)cc3)coc2c1 (configuration not stated)
153 to 155 °C | CC(C)(Cn1cnc2c(N)nc3ccccc3c21)CC1(C)OCCO1
66 to 67 °C | CN(C)C(=O)[C@@H]1CCCN1C(=O)OCc1ccccc1
74 to 75 °C | COc1ccc(C2=NN(CCCCCCBr)C(=O)[C@H]3CCCC[C@@H]23)cc1OC (relative stereo)
144 to 146 °C | CCC(=O)NCC[C@@H]1CCc2ccc(O)c(CCO)c21
242 to 244 °C | O=C(O)c1ccc(C(=O)/C=C/c2ccc(F)c(-c3cccs3)c2)cc1
123 °C | Cc1cc(Cl)c2c(C#N)cn(-c3ccc(C(C)C)cc3Br)c2n1
161 to 162 °C | O=C1CCCC2ON(Cc3ccccc3)C3C(CSC23)N1 (configuration not stated)
89 to 90 °C | Fc1ccc(/C=C/c2nc(COc3cccc(CCCn4ccnn4)c3)co2)c(F)c1
204 to 206 °C | CNC(=O)COc1nc(N)nc(-c2ccccc2)c1-c1ccc(=O)n(C(C)C)n1
150 to 154 °C | CC(C)(C)c1cc(Cl)cc2c1OC(=O)C2O (configuration not stated)
192 to 195 °C | CC1CN(c2nc(N)nc(-c3cc(Cl)ccc3Cl)n2)CC(C)O1 (configuration not stated)
40 to 41 °C | ClCn1cnc(Cl)c1Cl
153 to 154 °C | COc1cc(F)c(C=O)cc1O
239 to 241 °C | O=C(O)/C=C(\c1ccccc1)c1ccncc1
98 to 101 °C | FC(F)(F)c1ccc(-c2ccc(Cl)nc2)cc1
172 to 173 °C | COc1ccc(C(=O)c2ccc(O)cc2)c(OC(C)(C)C(=O)OC(C)(C)C)c1
100 °C | CC(=O)NCCOC(=O)C(Oc1ccc(F)c(C(F)(F)F)c1)c1ccc(F)cc1 (configuration not stated)
78 to 79 °C | COCc1ccc2cccnc2c1Cl
256 to 259 °C | CN1C(=O)COc2c(C(=O)O)cc([N+](=O)[O-])cc21
111 to 112 °C | NS(=O)(=O)c1ccccc1SCC(F)F
152 to 156 °C | NC(=O)c1ncc(Cl)cc1N
> 250 °C | NC(=O)c1ccc2c(O)cncc2c1
100 to 101 °C | CCCNC(=O)Nc1nn(Cc2ccccc2)cc1C(=O)OCC

melting point | Structure (SMILES)
114 °C | COc1ccc(Cl)cc1C(=O)NCCc1ccc(-c2ccc(S(C)(=O)=O)cc2)c(S(N)(=O)=O)c1
154 °C | C/C=C/c1ccc2c(NCc3ccc(NC(=O)C4CCN(Cc5ccccc5)CC4)cc3)nc(N(C)C)nc2c1
143 °C | COc1ccc(Cn2c(=O)oc(=O)c3cc(F)cnc32)cc1
188 to 189 °C | CN(c1cc(F)cc2cc(C3=NCCS3)[nH]c12)S(=O)(=O)c1cccs1
116 °C | CCCCc1nn2ccccc2c1C(=O)c1ccccc1C#N
168 to 170 °C | Cc1cccc(NC(=O)CN2CCN(c3ccccc3C#N)CC2)c1
150 to 151 °C | COc1ccc(-c2c(NC(C)(C)Cc3ccccc3)c(=O)c2=O)cc1
231 to 232 °C | Cc1nc(-c2cnn(-c3c(Cl)cc(C(F)(F)F)cc3Cl)n2)[nH]c1[N+](=O)[O-]
124 to 133 °C | CNC(=O)N(CCN)c1nc(-c2ccc(F)cc2C)c2ccc(=O)n(-c3c(F)cccc3F)c2n1
251 to 256 °C | O=C(O)c1nn(Cc2cccc(O)c2)c2c1CCc1cc(OCc3cncnc3)ccc1-2
264 to 265 °C | COc1cc(OC)c(-c2ccc(N(C)CCN(C)c3ccc(-c4c(OC)cc(OC)cc4OC)nc3)cn2)c(OC)c1
244 °C | O=C1CC(c2cccc(-n3ccnc3)c2)=Nc2cc(N3C[C@@H](O)[C@@H](O)C3)c(-c3ccc(F)cc3)cc2N1
75 to 76 °C | CCOCc1nc2c(NC(C)=O)nc3ccccc3c2n1CC(C)(C)NS(C)(=O)=O
50 to 53 °C | CCCNC(=O)C1(CCCCSc2ccccc2)c2ccccc2-c2ccccc21
238 °C | C1=c2ccccc2=C2N=c3ccc4ccccc4c3=C2C1
77.5 to 79 °C | CN1C(=O)C(c2ccc(Cl)cc2)SC1c1cccnc1 (configuration not stated)
144 to 145 °C | COc1cc(OCC(CO)CO)c(C=O)cc1-c1cccs1
124 to 125 °C | Cn1cc(CC(=O)O)c(OCc2cc(OCc3ccc4ccccc4n3)no2)n1
79 to 83 °C | C=CC[C@@H]1C[C@@H](COc2ccc(CCCCNC(=O)OC(C)(C)C)cc2)N(CCc2ccc3ccccc3c2)C1=O
162 to 164 °C | O=C1CCCN(C(=O)c2ccc([N+](=O)[O-])cc2Cl)c2ncccc21
113 to 115 °C | CC1(C)CCC2(CC1S(=O)(=O)c1ccccc1)OCCO2 (configuration not stated)
122 to 123 °C | CC[C@H](COC)n1cc(Br)nc(N2CCc3cc(OC)cc(Br)c32)c1=O
203 °C | CCCc1c(C(=O)NC2CC2)nnn1-c1ccc(C(=O)NCC)cc1O
65.5 °C | O=C(OCCS(=O)(=O)CCCOCCc1ccccc1)c1ccccc1

melting point | Structure (SMILES)
160 to 162 °C | Cc1nc(-c2cc([N+](=O)[O-])ccc2F)cs1
82 to 84 °C | O=C(NC1CCN(CCCCc2ccccc2)C1)C12CC3CC(CC(C3)C1)C2 (configuration not stated)
86 to 88 °C | CC(=O)c1cccc2nc(SCCCN3CCCN(CC(=O)Nc4c(C(C)C)cccc4C(C)C)CC3)oc12
66 to 67 °C | CCN(CC)CCOC1CCC2C3CCc4cc(OC)ccc4C3CCC12CC (configuration not stated)
219 to 220 °C | CC(=O)Nc1ccc(Nc2nccc(-c3sc(C)nc3C)n2)cc1
55 to 59 °C | CC(C)(C)OC(=O)N1CCCN(c2ncnc3ccccc23)CC1
116 to 118 °C | CC(C)CCC1(CCC(C)C)c2cc(Cl)ccc2-c2ccc(Cl)cc21
213 to 214 °C | CC(=O)Oc1c2c(c3ccccc3c1OC(C)=O)N(C(C)=O)c1ccccc1S2
236 to 237 °C | CCC1NC(C(=O)O)Cc2c1[nH]c1ccccc21 (configuration not stated)
85 °C | Cc1ccc(S(=O)(=O)OCC(NC(=O)OC(C)(C)C)C(C)C)cc1 (configuration not stated)
49 to 51 °C | Cc1cccc(Cl)c1CC#N
191 °C | Cc1cc(=O)c(Oc2ccc(F)cc2F)c(-c2ccc(S(C)(=O)=O)cc2)o1
259 to 261 °C | O=c1ccc2c(-n3cnc(CO)c3)nccc2[nH]1
163 °C | CC(C)(O)C(=O)N[C@H]1CC[C@H](CCN2CCC(c3cccc4c3CCO4)CC2)CC1
129 to 131 °C | CC(C)(OCc1nn(Cc2ccccc2)c2ccc([N+](=O)[O-])cc12)C(=O)O
66 to 67 °C | CCCCCCC1(CCCCCC)c2cc(Cl)ccc2-c2ccc(Cl)cc21
122 to 123 °C | CN1CCC(c2cccc3ccc(-c4cncnc4)cc23)CC1
56.1 to 57.9 °C | C=CC(=O)OCCCCCCCCOc1ccc(-c2ccc(OCCCCCCCCOC(=O)C=C)c(F)c2)cc1F
103 to 104 °C | CC(C)(C)c1ccc(C2CC(=O)c3ccccc3O2)cc1 (configuration not stated)
193 °C | CC(C)(C)NCC(O)COc1ccc2oc(-c3ccc(O)c(O)c3)cc(=O)c2c1 (configuration not stated)
205 to 207 °C | COc1ccc(NC(=O)NCc2cccc3c2C(=O)N(C2CCC(=O)NC2=O)C3=O)cc1 (configuration not stated)
137 to 138 °C | COc1ccc(-c2ccc(C=O)c3ccccc23)cc1F
254 to 255 °C | Cc1nnc2cc(-c3ccccc3)c3cc(Cl)ccc3n12
210 to 211 °C | CC(C)OC(=O)Nc1ccc2nc(-c3ccccc3)oc2n1

melting point | Structure (SMILES)
123 to 124 °C | COC(=O)C(Cc1c[nH]c2ccccc12)NC(=O)c1ccc2c(c1)OCO2 (configuration not stated)
266 to 268 °C | CS(=O)(=O)N1CCn2c(nc3c(N)nc4cc(OCc5ccccc5)ccc4c32)C1
80 to 81 °C | CCOC(=O)C=Cc1ccc(OCCN(C)c2ccccn2)cc1
178 to 180 °C | O=C(NCc1cc[nH]n1)c1ccnc(N2CCN(Cc3ccc(F)cc3)C2=O)c1
94 to 95 °C | CC(=O)Oc1cc(C(=O)Cc2ccccc2)cc([N+](=O)[O-])c1OC(C)=O
213 to 215 °C | COc1cc(-c2nc(N3CCNC(C)C3)c3c(C)c(C#N)sc3n2)cc(OC)c1OC (configuration not stated)
55 to 58 °C | Cc1ccc2c(c1)[C@H](Nc1ncnc(NC(=O)C(F)(F)F)n1)[C@@H](C)C2
368 to 370 °C | O=C(O)c1cccc(N2C(=O)c3ccc([N+](=O)[O-])cc3C2=O)c1
182 °C | Cc1cc(Oc2cccc(C(=O)O)n2)n(C)n1
164 °C | NC(=O)n1c(S(=O)Cc2ccccn2)nc2ccccc21 (configuration not stated)
71 to 73 °C | Cc1cccc(OC(C)(C)C(=O)O)c1C
120 to 121 °C | CCOC(=O)C1C(c2ccc(I)cc2)CC(=O)N1C (configuration not stated)
220 to 223 °C | CC1(C)CC(=O)c2c(SCc3ccccc3)c[nH]c2C1
87 to 89 °C | COC(=O)[C@@H](N)CCc1nnnn1CC(=O)N[C@H](C)C(=O)OC
194 to 195 °C | CN[C@@H]1CN(c2cc3c(cc2F)c(=O)c(C(=O)O)cn3C(C)(C)C)[C@H]1C (relative stereo)
102 °C | Cc1c(NC(=O)c2ccc(CC(=O)C3CCCO3)cc2)ccc2cc(CN3CCCC3)cnc12 (configuration not stated)
185 °C | CC(=O)Nc1c(N)cc(Br)cc1OCc1ccccc1
287 °C | Cn1ncc2[nH]c3c(Br)cccc3c(=O)c21
75 °C | O=S(=O)(CC(Br)(CBr)c1cccc(Cl)n1)C1CC1 (configuration not stated)
117 to 118 °C | Cc1nc2c(s1)N(C(=O)c1cnoc1C)CCCC2
209 to 210 °C | CCOC(=O)C(Cl)=Cc1cc(NC(N)=O)ccc1Cl
232 to 233 °C | Cc1nc(-n2cnn(Cc3ccc(F)cc3)c2=O)sc1C(N)=O
117 to 118 °C | CCn1c(=Nc2ccccc2)sc2ncccc2c1=O

Structure (SMILES) | melting point
COC(=O)C1=CC(C(=O)c2cc(C)ccc2O)=CN2CCc3c([nH]c4ccccc34)C12C(=O)OC (configuration not stated) | 197 °C
O=C1c2c(Cl)cccc2-n2cnc(-c3nc(C4CCCC4)no3)c2[C@@H]2CCCN12 | 177 to 178 °C
OCCOC12CC(CO)CNC1Cc1c[nH]c3cccc2c13 (configuration not stated) | 198 to 205 °C
O=P1(NCCBr)OCCCN1CCBr (configuration not stated) | 58 to 59 °C
O=c1[nH]c2ccc3c(c2o1)OC(CN1CC=C(c2c[nH]c4ccccc24)CC1)CO3 (configuration not stated) | 202 °C
Clc1ccc2c(C3CCNCC3)c[nH]c2c1Cl | 254 to 257 °C
Clc1cc(Cl)c(Cl)c(CBr)c1 | 40 to 42 °C
